In brackets after ≈: the same amount, converted by molar mass.
Assays:
Substance-P receptor [1] = molecular target: Substance-P receptor (Cavia porcellus, UniProt P30547); assay: Antagonism of the guinea pig tachykinin NK1 receptor; assay type: functional
Histamine H1 receptor [2] = molecular target: T1, Histamine H1 receptor (Homo sapiens, UniProt P35367); assay type: functional
Substance-K receptor = molecular target: T2, Substance-K receptor (Homo sapiens, UniProt P21452); assay: Compound was evaluated for the antagonistic activity against Tachykinin receptor 2; assay type: functional
T2 sequence (P21452 whole entry): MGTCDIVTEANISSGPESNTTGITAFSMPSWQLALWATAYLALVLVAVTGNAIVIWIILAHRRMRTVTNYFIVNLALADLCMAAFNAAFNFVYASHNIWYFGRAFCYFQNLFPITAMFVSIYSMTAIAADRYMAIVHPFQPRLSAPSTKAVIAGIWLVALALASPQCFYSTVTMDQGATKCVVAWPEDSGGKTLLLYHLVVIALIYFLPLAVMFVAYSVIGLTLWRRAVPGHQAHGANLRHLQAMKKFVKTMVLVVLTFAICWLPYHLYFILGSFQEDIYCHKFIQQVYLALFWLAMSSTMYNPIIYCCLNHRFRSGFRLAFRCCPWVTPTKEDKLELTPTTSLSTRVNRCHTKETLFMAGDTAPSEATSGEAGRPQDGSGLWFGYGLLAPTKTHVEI

Substance-P receptor [3] = molecular target: Substance-P receptor (Homo sapiens, UniProt P25103); assay: Compound was evaluated for the antagonistic activity against NK1 receptor; assay type: functional
[4] = Compound was tested for its solubility at pH 7.4; assay type: physicochemical; settings: buffer
[5] = Dose-dependent inhibition of SP-induced increases in phosphatidylinositol turnover in UC11 cells; assay type: functional, cell-based; settings: Homo sapiens, read-out: pA2 (converted)
Cavia porcellus [6] = species: Cavia porcellus; assay: Inhibition of histamine-induced contraction of guinea pig ileum in a concentration-dependent fashion; assay type: functional; settings: read-out: pA2 (converted)
[7] = Compound was calculated log P; settings: pH 7.4
Cavia porcellus [8] = species: Cavia porcellus; assay: Compound with maleate salt was tested for inhibition of histamine-induced skin wheal response in guinea pigs; assay type: functional
Histamine H1 receptor [9] = molecular target: T1, Histamine H1 receptor; assay: Compound was evaluated for the antagonistic activity against H1 receptor; assay type: functional

Chain of Substance-P receptor (Cavia porcellus, UniProt P30547) (P30547 whole entry): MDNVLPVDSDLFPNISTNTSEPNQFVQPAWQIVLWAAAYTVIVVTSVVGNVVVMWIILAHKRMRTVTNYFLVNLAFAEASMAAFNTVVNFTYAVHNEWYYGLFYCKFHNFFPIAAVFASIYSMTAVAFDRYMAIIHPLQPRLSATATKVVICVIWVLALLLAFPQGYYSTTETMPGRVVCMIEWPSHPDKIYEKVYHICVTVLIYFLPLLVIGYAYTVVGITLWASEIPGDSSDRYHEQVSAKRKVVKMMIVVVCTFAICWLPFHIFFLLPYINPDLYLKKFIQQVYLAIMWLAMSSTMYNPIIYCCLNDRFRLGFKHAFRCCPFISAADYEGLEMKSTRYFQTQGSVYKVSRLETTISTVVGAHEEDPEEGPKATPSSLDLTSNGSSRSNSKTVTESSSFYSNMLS
T1 sequence (P35367 whole entry): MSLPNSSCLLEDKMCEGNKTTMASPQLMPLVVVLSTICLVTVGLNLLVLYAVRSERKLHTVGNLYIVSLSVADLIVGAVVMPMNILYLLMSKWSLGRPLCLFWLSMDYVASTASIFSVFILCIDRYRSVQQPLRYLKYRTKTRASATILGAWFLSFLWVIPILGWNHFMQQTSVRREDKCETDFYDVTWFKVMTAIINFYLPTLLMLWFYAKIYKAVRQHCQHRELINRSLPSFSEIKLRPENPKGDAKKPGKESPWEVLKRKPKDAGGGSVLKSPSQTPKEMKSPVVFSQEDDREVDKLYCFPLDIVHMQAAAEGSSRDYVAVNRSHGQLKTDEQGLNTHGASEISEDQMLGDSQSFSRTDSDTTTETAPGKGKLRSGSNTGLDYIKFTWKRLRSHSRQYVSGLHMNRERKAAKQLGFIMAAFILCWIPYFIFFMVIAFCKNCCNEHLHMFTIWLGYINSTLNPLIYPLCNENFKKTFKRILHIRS
Chain of Substance-P receptor (Homo sapiens, UniProt P25103) (P25103 whole entry): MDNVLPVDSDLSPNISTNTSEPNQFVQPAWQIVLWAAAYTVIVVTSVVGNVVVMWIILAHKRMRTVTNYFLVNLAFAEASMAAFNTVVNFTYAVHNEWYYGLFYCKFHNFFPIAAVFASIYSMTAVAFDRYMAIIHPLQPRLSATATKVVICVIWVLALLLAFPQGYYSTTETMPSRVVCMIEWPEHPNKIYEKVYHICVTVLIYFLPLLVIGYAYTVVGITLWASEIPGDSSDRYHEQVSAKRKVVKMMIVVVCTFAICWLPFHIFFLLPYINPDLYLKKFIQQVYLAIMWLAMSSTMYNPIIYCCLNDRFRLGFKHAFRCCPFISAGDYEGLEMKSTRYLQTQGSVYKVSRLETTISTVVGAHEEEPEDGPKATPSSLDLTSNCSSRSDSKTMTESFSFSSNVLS

`CCOCCn1c(C(=O)C2CCN(CCC3(c4ccccc4)CCN(C(=O)c4cc(OC)c(OC)c(OC)c4)C3)CC2)nc2ccccc21` (centres undefined) gave an IC50 (Substance-P receptor [1]) of 26 nM.

With `COc1cc(C(=O)N2CCC(CCN3CCC(C(=O)c4nc5ccccc5n4Cc4cccnc4)CC3)(c3ccccc3)C2)cc(OC)c1OC` (centres undefined) the IC50 (Substance-P receptor [1]) was 27 nM.

For `COc1cc(C(=O)N2CCC(CCN3CCC(C(=O)c4nc5ccccc5n4Cc4ccncc4)CC3)(c3ccccc3)C2)cc(OC)c1OC` (centres undefined), the IC50 (Substance-P receptor [1]) was 37 nM.

In the case of `COc1ccccc1CN[C@H]1C2CCN(CC2)[C@H]1C(c1ccccc1)c1ccccc1` [CP-96345], the IC50 (Histamine H1 receptor [2]) is reported as about 10000 nM.

In the case of `COc1cc(C(=O)N2CCC(CCN3CCC(C(=O)c4nc5ccccc5n4CCOCc4ccco4)CC3)(c3ccccc3)C2)cc(OC)c1OC` (centres undefined), the IC50 (Histamine H1 receptor [2]) is reported as 446 nM and the IC50 (Substance-P receptor [1]) is reported as 12 nM.

In the case of `COc1ccc(C2(CCN3CCC(C(=O)c4nc5ccccc5n4Cc4ccccn4)CC3)CCN(C(=O)c3cc(OC)c(OC)c(OC)c3)C2)cc1` (centres undefined), the IC50 (Substance-P receptor [1]) is reported as 42 nM.

In the case of `COc1cc(C(=O)N2CCC(CCN3CCC(C(=O)c4nc5ccccc5n4Cc4ccc(F)cc4)CC3)(c3ccc(C(F)(F)F)cc3)C2)cc(OC)c1OC` (centres undefined), the IC50 (Substance-P receptor [1]) is reported as 117 nM.

In the case of `COc1cc(C(=O)N2CCC(CCN3CCC(C(=O)c4nc5ccccc5n4CCCOc4ccccc4C(=O)O)CC3)(c3ccccc3)C2)cc(OC)c1OC` (centres undefined), the IC50 (Histamine H1 receptor [2]) is reported as 9450 nM and the IC50 (Substance-P receptor [1]) is reported as 27 nM.

With `COc1ccc(CCN2CCC(C(=O)c3nc4ccccc4n3Cc3ccc(F)cc3)CC2)cc1` the IC50 (Substance-K receptor) was 3390 nM and the IC50 (Substance-P receptor [3]) was 5200 nM.

`COc1cc(C(=O)N2CCC(CCN3CCC(C(=O)c4nc5ccccc5n4Cc4ccccn4)CC3)(c3ccc(Cl)c(Cl)c3)C2)cc(OC)c1OC` (centres undefined) gave an IC50 (Substance-P receptor [1]) of 32 nM.

Work on `COc1cc(C(=O)N2CCC(CCN3CCC(C(=O)c4nc5ccccc5n4Cc4ccc(F)cc4)CC3)(c3ccc(Cl)c(Cl)c3)C2)cc(OC)c1OC` (centres undefined) yielded an IC50 (Histamine H1 receptor [2]) of 124 nM and an IC50 (Substance-P receptor [1]) of 92 nM.

For `COc1cc(C(=O)N2CCC(CCN3CCC(C(=O)c4nc5ccccc5[nH]4)CC3)(c3ccccc3)C2)cc(OC)c1OC` (centres undefined), the IC50 (Substance-P receptor [1]) was 36 nM.

With `COc1ccc(C2(CCN3CCC(C(=O)c4nc5ccccc5n4Cc4ccc(F)cc4)CC3)CCN(C(=O)c3cc(OC)c(OC)c(OC)c3)C2)cc1OC` (centres undefined) the IC50 (Histamine H1 receptor [2]) was 309 nM, the solubility [4] was under 0.1 µg/mL and the Kb [5] was 66.1 nM. For the same compound, the Kb (Cavia porcellus [6]) was 30.2 nM, the logP [7] was 4.72 and the ED50 (Cavia porcellus [8]) was 18.9 mg/kg.

For `COc1cc(C(=O)N2CCC(CCN3CCC(C(=O)c4nc5ccccc5n4Cc4ccc(F)cc4)CC3)(c3ccc(F)cc3F)C2)cc(OC)c1OC` (centres undefined), the IC50 (Substance-P receptor [1]) was 296 nM.

With `COc1cc(C(=O)N2CCC(CCN3CCC(C(=O)c4nc5ccccc5n4Cc4ccco4)CC3)(c3ccccc3)C2)cc(OC)c1OC` (centres undefined) the IC50 (Substance-P receptor [1]) was 21 nM.

With `CC(C)(C)c1ccc(C(O)CCCN2CCC(C(O)(c3ccccc3)c3ccccc3)CC2)cc1` (centres undefined) [TERFENADINE] the IC50 (Substance-P receptor [1]) was over 10000 nM.

For `COC(=O)c1ccc(Cn2c(C(=O)C3CCN(CCC4(c5ccccc5)CCN(C(=O)c5cc(OC)c(OC)c(OC)c5)C4)CC3)nc3ccccc32)cc1` (centres undefined), the IC50 (Histamine H1 receptor [2]) was 1210 nM and the IC50 (Substance-P receptor [1]) was 23 nM.

With `COC(=O)c1ccccc1OCCCn1c(C(=O)C2CCN(CCC3(c4ccccc4)CCN(C(=O)c4cc(OC)c(OC)c(OC)c4)C3)CC2)nc2ccccc21` (centres undefined) the IC50 (Histamine H1 receptor [2]) was 994 nM and the IC50 (Substance-P receptor [1]) was 16 nM.

With `COc1cc(C(=O)N2CCC(CCN3CCC(C(=O)c4nc5ccccc5n4Cc4ccc(C(=O)O)cc4)CC3)(c3ccccc3)C2)cc(OC)c1OC` (centres undefined) the IC50 (Histamine H1 receptor [2]) was 3420 nM and the IC50 (Substance-P receptor [1]) was 36 nM.

Compound `COc1cc(C(=O)N2CC[C@](CCN3CCC(C(N)=O)(c4ccccc4)CC3)(c3ccc(Cl)c(Cl)c3)C2)cc(OC)c1OC` has an IC50 (Substance-K receptor) of 8 nM, an IC50 (Histamine H1 receptor [9]) of 10000 nM and an IC50 (Substance-P receptor [3]) of 3 nM.

With `COc1cc(C(=O)N2CCC(CCN3CCC(C(=O)c4nc5ccccc5n4Cc4ccccn4)CC3)(c3ccccc3)C2)cc(OC)c1OC` (centres undefined) the solubility [4] was 38 µg/mL (≈ 55.2 µM), the IC50 (Substance-P receptor [1]) was 27 nM and the logP [7] was 3.22. For the same compound, the ED50 (Cavia porcellus [8]) was 10.3 mg/kg.

`COc1cc(C(=O)N2CCC(CCN3CCC(C(=O)c4nc5ccccc5n4Cc4ccc(F)cc4)CC3)(c3ccccc3)C2)cc(OC)c1OC` (centres undefined) gave an IC50 (Substance-P receptor [1]) of 34 nM.

Source: ChEMBL document CHEMBL1150559 (Bioorg Med Chem Lett, 1997)
